# Source: patent publication US10052340B2 (XIAMEN UNIVERSITY, priority 2012, dated 2018)
# Experiments:
# [1] = system: KK-Ay mice; assay: Mouse trial, KK-Ay diabetes and obesity model mice fed with high-fat diet; assay type: in vivo
# From the text: In order to detect the efficacy of abamectin/avermectin, ivermectin and the derivative doramectin in the body of a diabetes and obesity mouse model, we choose diabetes and obesity mouse model mice, KK-Ay mice, as the experimental subject.
# [2] = system: FXR targeting genes and genes associated with the saccharide, triglyceride and cholesterol metabolism; assay: Fluorescence quantitative PCR of liver gene expression in treated wild-type mice; assay type: in vivo; settings: wild-type mouse liver, real-time PCR, FIG. 13
# Protocol: Total RNA is extracted from the tissues using an RNA extraction kit (Omega Bio-Tek, GA). TAKARA reverse transcription kit is used for the reverse transcription, and fluorescence quantitative PCR is performed with CFX™ 96 (BIO-RAD) real-time monitoring system using SYBR green fluorescent dye so as to analyze the gene expression level. The expression level of Actin gene is used as the internal reference for the results. The reaction system comprises SYBR Premix Ex Taq (2×) of 12.5 μl, PCR forward primer (10 μM) of 1 μl, PCR reverse primer (10 μM) of 1 μl, cDNA template of 2 μl, and sterilized distilled water of 8.5 μl, 25 μl in total. The two-step amplification PCR procedures are as follows: pre-denaturation at 95° C. for 30 s, PCR reaction at 95° C. for 5 s, and 60° C. for 40 s. 40 cycles.
# The expression of genes associated with saccharides, lipids, and cholesterol metabolism in mouse liver treated with ligand medicaments is detected by fluorescent quantitative real-time PCR.
# [3] = i.p. daily 14 days, ivermectin/derivatives 1.3 mg/kg, GW4064 30 mg/kg
structure (smiles),measurement,setting,value
CC[C@H](C)[C@H]1O[C@]2(CC[C@@H]1C)C[C@@H]1C[C@@H](C/C=C(\C)C(O[C@H]3C[C@H](OC)C(O[C@H]4C[C@H](OC)[C@@H](O)[C@H](C)O4)[C@H](C)O3)[C@@H](C)/C=C/C=C3\CO[C@@H]4[C@H](O)C(C)=CC(C(=O)O1)[C@]34O)O2 (stereo partly drawn) [ivermectin],serum insulin level,"[1]; 1.3 mg/kg i.p. daily, 14 days",significantly decreases
same,serum saccharides (glucose) level,"[1]; 1.3 mg/kg i.p. daily, 14 days",significantly decreases
same,serum free fatty acids,"[1]; i.p. daily 14 days, ivermectin 1.3 mg/kg, GW4064 30 mg/kg",significantly decrease
same,serum cholesterol,[1]; [3],significantly decrease
same,serum triglycerides,[1]; [3],significantly decrease
same,"expression of genes associated with saccharides, lipids and cholesterol metabolism in liver",[2],can regulate the expression of genes associated with metabolism
